Results from patent publication US20140030368A1, “COMPOSITION FOR PREVENTING OR TREATING A RESPIRATORY DISEASE CONTAINING A MIXED HERBAL EXTRACT OF CNIDIUM OFFICINALE ROOT AND POLYGONI CUSPIDATI ROOT” (WHANIN PHARMACEUTICAL CO., LTD., priority 2011, published 2014).

What was measured:
Format in all cases: in vivo, mice
IFN-γ (interferon-γ) = test: T cell-derived cytokine from lung tissue, LPS-induced asthma/COPD model (ELISA); conditions: ovalbumin + LPS model
Method: (§1) In order to examine whether the extract of the present invention has the effect of inhibiting T cell-derived cytokine isolated from the lung tissue of an LPS-derived asthma/chronic obstructive pulmonary disease model, the following test was performed.
(§2) Specifically, the LPS-induced asthma/chronic obstructive pulmonary disease model was prepared by treatment with each of the extract of Example 2 and a comparative drug in the same manner as described in Test Example 7-1. At 6 hours after the final challenge, the mice were anesthetized by intraperitoneal injection with ketamine and xylazine, and lung tissue was obtained from the mice. The lung tissue was cut finely with a blade and incubated with 5 ml of 1× Trypsin-EDTA and 1000 units of chollagenase at 37° C. for 10 minutes. Then, the tissue was passed through a 100 μm mesh to collect only immune cells. To stimulate T cells among the collected cells, 1×10^5 cells and anti-CD28 (1 μg/ml) were added to a 96-well plate coated with anti-CD3 (1 μg/ml) and were incubated in an incubator at 37° C. for 12 hours. Next, the supernatant was collected, and the amounts of the cytokines IL-17 (interleukin 17) and IFN-γ (interferon-γ) in the supernatant were measured using an ELISA (enzyme-linked immunosorbent assay).

IL-17 (interleukin 17) = test: as above; conditions: ovalbumin + LPS model
Method: as §1, §2

IL-4 (interleukin-4) = test: T cell-derived cytokine from lung tissue, ovalbumin-induced asthma/COPD model
Method: In order to examine whether the extract of the present invention has the effect of inhibiting adaptive immune responses in an ovalbumin (OVA)-induced asthma/chronic obstructive pulmonary disease model, the content of T cell-derived cytokines isolated from lung tissue was measured (see Seong Gyu Jeon et al., J. Allergy Clin. Immunol., 2007, 119, 831-837).
Specifically, a mixture of 75 μg of ovalbumin (OVA, Sigma) and 2 mg of aluminum hydroxide (Alum, Sigma) was intraperitoneally administered twice (days 0 and 7) into BALB/c female mice (6 weeks old; provided from Animal Laboratory in Biotech Center, Pohang University of Science & Technology) to sensitize the mice. At 14, 15 and 21 days after the first sensitization date, 50 μg of ovalbumin in PBS was challenged into the nasal cavity to induce asthma and chronic obstructive pulmonary disease. […]
Then, the lung tissue was finely cut with a blade and incubated with 5 ml of 1× Trypsin-EDTA and 1000 units of chollagenase at 37° C. for 10 […]. […] Then, the supernatant was collected, and the amount of cytokine IL-4 (interleukin-4) in the supernatant was measured using an ELISA (enzyme-linked immunosorbent assay).

[1] = test system: inflammatory cells in pulmonary bronchoalveolar lavage; test: Inflammatory cells in pulmonary bronchoalveolar lavage, LPS-induced asthma/COPD model; conditions: ovalbumin + LPS model
Method: Whether the extract of the present invention has the effect of inhibiting pulmonary bronchial inflammation in an LPS (lipopolysaccharide)-induced asthma/chronic obstructive pulmonary disease model was examined (see You-Sun Kim et al., J. Immunol., 2010, 185, 5648-5655; Jun-Pyo Choi et al., Allergy, 2010, 65, 1322-1330).
Specifically, a mixture of 75 μg of ovalbumin and 10 μg of LPS (Sigma) was intranasally administered a total of four times (days 0, 1, 2 and 7) into C57BL/6 male mice (6 weeks old; provided from the Animal Laboratory in Biotech Center, Pohang University of Science & Technology) to sensitize the mice. At 14, 15, 21 and 22 days from the first sensitization date, 50 μg of ovalbumin in PBS was challenged into the nasal cavity to induce asthma and chronic obstructive pulmonary disease. In addition, at 14, 15, 21 and 22 days at which challenge was performed, each of 1.0% CMC, 100, 200 and 400 mg/10 ml/kg of the extract of Example 2, 1 mg/10 ml/Kg of the comparative drug dexamethason and 10 mg/10 ml/kg of the comparative drug montelukast was orally administered twice a day. At 48 hours after the final challenge, the mice were anesthetized by intraperitoneal administration of ketamine and xylazine, and the organ of the mice was exposed and a catheter was inserted therein. Then, the bronchoalveoli were laved with each of 0.8 and 0.7 ml of sterile phosphate buffered saline to obtain a bronchoalveolar lavage. The bronchoalveolar lavage was centrifuged at 4° C. at 1000 rpm for 5 minutes, and the supernatant was removed. 2 ml of 10% FBS-IMDM (fetal bovine serum—Iscove's Modified Dulbecco's Medium) was added to the cells which were then counted. Then, the cells were cytospun, plated on a slide, and Diff-Quick stained. At least 300 inflammatory cells were observed by the staining method and classified into eosinophils, macrophages, neutrophils and lymphocytes, and the cell numbers of the groups treated with dexamethason, montelukast and the extract of Example 2 were compared with the ratios of inflammatory cells in the pulmonary bronchoalveolar lavages of the negative control group and the positive control group, thereby evaluating the inhibitory effects of the test materials against airway inflammation.

[2] = test system: invasion of inflammatory cells into lung tissue; test: Invasion of inflammatory cells into lung tissue, LPS-induced asthma/COPD model (H&E score); conditions: ovalbumin + LPS model
Method: Then, the lung was isolated, embedded with paraffin, sectioned to a thickness of […], and stained with H&E (hematoxylin-eosin). The invasion of inflammatory cells into a portion surrounding the airway was measured (see FIG. 3), and the inflammations of the airway and the pulmonary parenchyma were compared and scored.

[3] = test system: MIP-1α (macrophage inflammatory protein-1α); test: Inflammatory mediator in bronchoalveolar lavage, E. coli-EV-induced model (ELISA)
Method: (§3) The expression patterns of the inflammatory mediators MCP-1 (monocyte chemoattractant protein-1) and MIP-1α (macrophage inflammatory protein-1α) in the bronchoalveolar lavage obtained in Test Example 8-1 were measured using an ELISA assay, and the results of the measurement are shown in Table 14 below.

[4] = test system: MCP-1 (monocyte chemoattractant protein-1); test: as above
Method: as §3

SMILES | IFN-γ inhibition rate (%) (IFN-γ (interferon-γ); 10 mg/kg b.i.d.) | IL-17 inhibition rate (%) (IL-17 (interleukin 17); 10 mg/kg b.i.d.) | IL-4 inhibition rate (%) (IL-4 (interleukin-4); 10 mg/kg b.i.d. oral) | Inhibition rate(%) Eosinophils ([1]; 10 mg/kg b.i.d.) | Inhibition rate(%) Macrophages ([1]; 10 mg/kg b.i.d.) | Inhibition rate(%) Total cells ([1]; 10 mg/kg b.i.d.) | Inhibition rate (%) of invasion of inflammatory cells into lung tissue ([2]; 10 mg/kg b.i.d.) | Inhibition rate(%) MIP-1α ([3]; 10 mg/kg b.i.d.) | Inhibition rate(%) MCP-1 ([4]; 10 mg/kg b.i.d.) | IFN-γ inhibition rate (%) (IFN-γ (interferon-γ); 1 mg/kg b.i.d.) | IL-17 inhibition rate (%) (IL-17 (interleukin 17); 1 mg/kg b.i.d.) | IL-4 inhibition rate (%) (IL-4 (interleukin-4); 1 mg/kg b.i.d. oral) | Inhibition rate(%) Eosinophils ([1]; 1 mg/kg b.i.d.) | Inhibition rate(%) Macrophages ([1]; 1 mg/kg b.i.d.) | Inhibition rate(%) Total cells ([1]; 1 mg/kg b.i.d.) | Inhibition rate (%) of invasion of inflammatory cells into lung tissue ([2]; 1 mg/kg b.i.d.) | Inhibition rate(%) MIP-1α ([3]; 1 mg/kg b.i.d.) | Inhibition rate(%) MCP-1 ([4]; 1 mg/kg b.i.d.)
CC(C)(O)c1ccccc1CC[C@@H](SCC1(CC(=O)O)CC1)c1cccc(/C=C/c2ccc3ccc(Cl)cc3n2)c1 [montelukast] | 14.50% | 68.42% | 14.07% | 13.3% | 8.2% | 10.6% | 8.25% | 4.2% | 11.5% |  |  |  |  |  |  |  |  | 
C[C@@H]1C[C@H]2[C@@H]3CCC4=CC(=O)C=C[C@]4(C)[C@@]3(F)[C@@H](O)C[C@]2(C)[C@@]1(O)C(=O)CO [Dexamethason, dexamethason] |  |  |  |  |  |  |  |  |  | 15.19% | 23.12% | 43.57% | 51.1% | 27.3% | 40.4% | 28.87% | 8.3% | 1.2%
